# Laboratory results taken from patent publication US20180120298A1, “HEPATOCYTE CULTURE DEVICE CAPABLE OF ENHANCING ACCUMULATION AND EXCRETION OF HEPATIC METABOLITE IN AND INTO BILE CANALICULUS-LIKE STRUCTURE, AND METHOD FOR EVALUATING CANDIDATE COMPOUND SENSITIVE TO EXCRETION INTO BILE OR BLOOD AND HEPATIC METABOLITE OF SAID CANDIDATE COMPOUND USING SAID HEPATOCYTE …” (National Agriculture and Food Reserach Organization, priority 2015, published 2018).
# Like-named read-outs stand apart in the source and are kept apart here.
# Legend:
# HepG2 cells [1] = tested on: HepG2 cells
# Method: (§1) HepG2 cells (purchased from RIKEN BioResource Center, RCB1648, Lot.004) suspended in 0.5 mL DMEM culture medium containing 10% FBS, 20 mM HEPES, 100 units/mL penicillin, and 100 μg/mL streptomycin were seeded at 5×10^4 cells/cm^2 and cultured for 2 days in a hydrogel membrane chamber (ad-MED Vitrigel (registered trademark) manufactured by KANTO KAGAKU) to which a detachable silicone-coated PET film is attached. Thereafter, the film on a bottom surface of the hydrogel membrane chamber was detached, the chamber was mounted in a well of a 12-well plate, and culture was carried out for 1 day in a state where the bottom surface is in contact with air (refer to FIG. 2). The 0.5 mL culture medium was exchanged daily after seeding.
# (§2) [1] After removing the culture medium of the hydrogel membrane chamber containing the activated HepG2 cells, 0.5 mL of the culture medium containing 250 vg/mL Fluorescein diacetate (FD) was added, and then culture was carried out at 37° C. for 1 hour in a CO2 incubator (refer to FIG. 4 and Observation A of FIG. 5).
# (§3) [2] After removing the culture medium containing the FD remaining in the chamber, washing was performed twice with 0.5 mL of Hank's Balanced Salt Solution (Hank's balanced salt solution: HBSS), 0.5 mL of the culture medium was added to the chamber, and then culture was carried out at 37° C. for 1 hour in a CO2 incubator (refer to Observation B of FIG. 5).
# (§4) [1] HepG2 cells were seeded to prepare 12 sets of activated hydrogel membrane chambers. For 6 sets, FD was added to the culture medium and cultured by the same procedure as in [1] to [2] of Example 1.
# (§5) [2] Subsequently, after removing the culture medium remaining in the chamber, 0.5 mL of the culture medium was newly added to the chamber. Subsequently, each of three sets was cultured at 37° C. for 1 hour in a CO2 incubator under the following four conditions (refer to FIG. 6).
# (§6) i) A set in which HepG2 cells were co-cultured with TFK-1 cells (FD added) ii) A set in which HepG2 cells were co-cultured with TFK-1 cells (FD not added) iii) A set in which HepG2 cells were homo-cultured in a dish containing only a culture medium (FD added) iv) A set in which HepG2 cells were homo-cultured in a dish containing only a culture medium (FD not added)
# (§7) [3] The culture medium in the chamber and the dish of i) to iv) was recovered and the fluorescence intensities were measured.
# [2] With respect to the 36 sets of hydrogel membrane chambers in which the cells were seeded and cultured in [1], the culture medium remaining in the chamber was removed, and then 0.5 mL of the culture medium was newly added to the chamber. Subsequently, each of three sets was cultured at 37° C. in a CO2 incubator with culture time of 3 minutes, 30 minutes, and 60 minutes (for each 12 sets) under the following four conditions i) to iv) the same as those of Example 2.
# [3] The culture media in the dishes and in the chambers of i) to iv) were recovered 3 minutes, 30 minutes, and 60 minutes after the start of culture, and the fluorescence intensities were measured. Measurements were made three times respectively, and average values are shown in Table 3 (culture time 3 minutes), Table 4 (culture time 30 minutes), and Table 5 (culture time 60 minutes). In FIG. 7, the term “Co-culture” means the set in which HepG2 cells were co-cultured with TFK-1 cells, and the term “Homo-culture” means the set in which HepG2 cells were homo-cultured in the dish containing the culture medium.
# [2] With respect to the 48 sets of hydrogel membrane chambers in which the cells were seeded and cultured in [1], the culture medium remaining in the chamber was removed, and then 0.5 mL of the culture medium was newly added to the chamber. Subsequently, each of three sets was cultured at 37° C. in a CO2 incubator with culture time of 3 minutes, 30 minutes, 60 minutes, and 180 minutes (for each 12 sets) under the following four conditions i) to iv) the same as those of Example 2.
# [2] = tested on: HepG2 cells co-cultured with TFK-1 cells; assay: Fluorescein excretion into chamber and dish, activated HepG2 cells in hydrogel membrane chamber co-cultured with TFK-1 cells; type: in vitro ADME, human
# Method: as §1, §2, §3
# [3] Subsequently, after removing the culture medium remaining in the chamber, 0.5 mL of the culture medium was newly added to the chamber. Furthermore, TFK-1 cells (purchased from RIKEN BioResource Center, RCB2537, Lot.002) suspended in 2.0 mL of RPMI 1640 culture medium containing 10% FBS, 100 units/mL penicillin, and 100 μg/mL streptomycin were seeded at 7×10^4 cells/cm^2 in a dish having a diameter of 35 mm and cultured for 3 days, and therefore, monolayered cells were prepared in advance. After removing the culture medium in the dish, 0.5 mL of the culture medium for HepG2 cells was added thereto. The chamber was mounted on the monolayer of TFK-1 cells in the dish having a diameter of 35 mm, and then co-culture was carried out at 37° C. for 1 hour in a CO2 incubator (refer to Observation C of FIG. 5).
# [4] The fluorescence intensities of Fluorescein in the culture medium in the chamber and in the dish were measured. In Table 1, FD (−) is a value measured as a background value using a chamber having HepG2 cells cultured without adding FD.
# as §4, §5, §6, §7
# [2] […]
# HepG2 cells [3] = assay: Fluorescence microscope observation of Fluorescein in cytoplasm and bile canaliculus-like structure, homo-culture; type: in vitro ADME
# Method: (§8) [1] First, HepG2 cells were seeded to prepare 2 sets of activated hydrogel membrane chambers.
# [4] = tested on: HepG2 cells co-cultured with Normal Human Dermal Fibroblasts (NHDFs); assay: Fluorescein excretion into chamber and dish, activated HepG2 cells co-cultured with NHDFs; type: in vitro ADME; conditions: Example 6; culture time 60 minutes
# Method: [1] First, HepG2 cells were seeded to prepare 18 sets of activated hydrogel membrane chambers.
# [5] = tested on: HepG2 cells co-cultured with TFK-1 cells; assay: Fluorescein excretion into chamber and dish, activated HepG2 cells in hydrogel membrane chamber co-cultured with TFK-1 cells; type: in vitro ADME, human; conditions: Example 4
# [6] = tested on: HepG2 cells co-cultured with TFK-1 cells; assay: Fluorescence microscope observation of Fluorescein in cytoplasm and bile canaliculus-like structure, co-culture with TFK-1 cells; type: in vitro ADME, human
# Method: [3] […] After removing the culture medium in the dish, 0.5 mL of the culture medium for HepG2 cells was added thereto.
# as §8
compound,measurement,setting,value
"CC(=O)Oc1ccc2c(c1)Oc1cc(OC(C)=O)ccc1C21OC(=O)c2ccccc21 [FD, Fluorescein diacetate]","Average value of set, in chamber","HepG2 cells [1]; human, 3 min, 250 vg/mL",507
same,FD(+)-FD(−) in chamber as percentage of total excreted into chamber and dish,"HepG2 cells [1]; human, 30 min, 250 vg/mL",(50%)
same,FD(+)-FD(−) in dish as percentage of total excreted into chamber and dish,"HepG2 cells [1]; human, 30 min, 250 vg/mL",(50%)
same,"Average value of set, in chamber","HepG2 cells [1]; human, 1 h, 250 vg/mL",1145
same,"Average value of set, in dish","HepG2 cells [1]; human, 1 h, 250 vg/mL",645
same,FD(+)-FD(−) in chamber as percentage of total excreted into chamber and dish,"HepG2 cells [1]; human, 1 h, 250 vg/mL",(90%)
same,FD(+)-FD(−) in dish as percentage of total excreted into chamber and dish,"HepG2 cells [1]; human, 1 h, 250 vg/mL",(10%)
same,"FD(+)-FD(−), in chamber","HepG2 cells [1]; human, 1 h, 250 vg/mL",549
same,"FD(+)-FD(−), in dish","HepG2 cells [1]; human, 1 h, 250 vg/mL",60
same,"Average value of set, in chamber","HepG2 cells [1]; human, 180 min, 250 vg/mL",579
same,"Average value of set, in dish","HepG2 cells [1]; human, 180 min, 250 vg/mL",515
same,FD(+)-FD(−) in chamber as percentage of total excreted into chamber and dish,"HepG2 cells [1]; human, 180 min, 250 vg/mL",(71%)
same,FD(+)-FD(−) in dish as percentage of total excreted into chamber and dish,"HepG2 cells [1]; human, 180 min, 250 vg/mL",(29%)
same,"FD(+)-FD(−), in chamber","HepG2 cells [1]; human, 180 min, 250 vg/mL",88
same,"FD(+)-FD(−), in dish","HepG2 cells [1]; human, 180 min, 250 vg/mL",36
O=C1OC2(c3ccc(O)cc3Oc3cc(O)ccc32)c2ccccc21 [Fluorescein],rate of the fluorescence intensities of Fluorescein excreted into the dish (lower side) over time,HepG2 cells [1],decreased over time
same,culture time beyond which total excreted Fluorescein fluorescence becomes almost a plateau state,"HepG2 cells [1]; human, 250 vg/mL",exceeds 30 minutes
same,total of the fluorescence intensities of Fluorescein excreted into the chamber and into the dish,"HepG2 cells [1]; human, 1 h, 250 vg/mL",609
same,amount of Fluorescein excreted into the dish larger in co-culture with TFK-1 cells than in homo-culture (rate of excretion to the lower side),"[2]; Example 2, 1 hour",4%
same,"increase of the total amount of excreted Fluorescein, co-culture with TFK-1 cells vs homo-culture","[2]; Example 2, 1 hour",about 26%
same,total of the fluorescence intensities of Fluorescein excreted into the chamber and into the dish,"[2]; Example 2, co-cultured with TFK-1 cells, 1 hour",770
same,rate of the fluorescence intensities of Fluorescein excreted into the dish (lower side) over time,"[2]; Example 3, co-culture with TFK-1 cells",increased
same,"total of the fluorescence intensities of excreted Fluorescein, co-culture with TFK-1 cells compared with homo-culture","[2]; Example 3, culture time 3, 30 and 60 minutes",larger
same,time needed to reduce the amount of Fluorescein accumulated in the bile canaliculus-like structure,HepG2 cells [3]; Example 5,≥ 1 days
same,reduction in the green fluorescence of Fluorescein,"HepG2 cells [3]; Example 5, after 1 hour of excretion",not noticeable
same,reduction in the green fluorescence of Fluorescein,"HepG2 cells [3]; Example 5, after 3 hours of excretion",significantly noticeable
same,green fluorescence of Fluorescein,"HepG2 cells [3]; Example 5, after 23 hours of excretion",fluorescence in the bile canaliculus-like structure remained
same,amount of Fluorescein excreted into the dish smaller in co-culture with NHDFs than in co-culture with TFK-1 cells,[4],54%
same,"total of the fluorescence intensities of Fluorescein excreted into chamber and dish, co-culture with NHDFs compared with homo-culture",[4],almost the same
same,"total of the fluorescence intensities of excreted Fluorescein, co-culture with TFK-1 cells compared with homo-culture",[5]; at any time of the culture time (3 to 180 minutes),larger
same,culture time beyond which total excreted Fluorescein fluorescence becomes almost a plateau state,[5]; co-culture with TFK-1 cells,exceeds 60 minutes
same,rate of the fluorescence intensities of Fluorescein excreted into the dish (lower side) over time,[5]; co-culture with TFK-1 cells,increased
same,amount of Fluorescein excreted into the dish (lower side) larger in co-culture with TFK-1 cells than in homo-culture (rate of excretion to the lower side),[5]; culture time 180 minutes,36%
same,Fluorescein accumulated in the bile canaliculus-like structure after co-culturing with TFK-1 cells,"[6]; Example 1, Observations B and C of FIG. 5, co-culture 1 hour",decreased
same,time within which reduction in the amount of Fluorescein accumulated in the bile canaliculus-like structure was confirmed,"[6]; Example 5, co-culture with TFK-1 cells",≤ 1 h
same,reduction in the green fluorescence of Fluorescein,"[6]; Example 5, co-culture, after 1 hour of excretion",significantly noticeable
same,green fluorescence of Fluorescein,"[6]; Example 5, co-culture, after 3 hours of excretion",not possible to confirm
same,green fluorescence of Fluorescein,"[6]; Example 5, co-culture, after 23 hours of excretion",not possible to confirm
